# Like-named read-outs stand apart in the source and are kept apart here.
# Experiments:
# [1] = biological target: T1, PSMA on the LNCaP human prostate cell line (Homo sapiens, UniProt Q04609); assay: Cellular competition assay; format: binding
# T1 construct: Human prostate adenocarcinoma LNCaP PSMA-expressing cells were purchased from American Type Culture Collection; host or cells: LNCaP human prostate adenocarcinoma cells
# Description: Here, 12-well polylysine-coated Cellbind plates were seeded with 150 × 10^3 LNCaP cells. […] […] Cells were then incubated for 1 h, after which the medium was removed, cells were washed once with 1 mL of cold PBS, and then 1 mL of trypsin was added to collect cells for radioactivity measurement by gamma-counter. The assays were performed in triplicate, each time with independent ^64Cu-DOTHA2-PSMA production and cell seedings. IC50 was calculated using GraphPad Prism 9 one site fit logIC50.
# [2] = cited from earlier work
# [3] = design: method as in PMID 29088775, doi:10.1515/ract-2016-2632; settings: cited from earlier work
# PSMA = biological target: PSMA; design: method as in PMID 25883127; settings: cited from earlier work
# [4] = Plasma stability (ex vivo) and protein binding in mouse serum/plasma; format: in vitro ADME; settings: incubation of free 64Cu(OAc)2 in mouse plasma
# Description: Plasma stability studies were carried out by incubating ^64Cu-DOTHA2-PSMA (50 MBq in 250 μL PBS buffer) in 250 μL of mouse serum at 37 °C for up to 24 h. The plasma was then mixed twice with ethanol (1:1) to precipitate all the proteins. The samples were subjected to vortex mixing for 1 min and then centrifugation for 10 min at 7000 rpm. Plasma proteins were separated from the soluble component by ultracentrifugation and the radioactivity was assessed. The supernatant fraction was assayed by radio-TLC on C18 plates and by UPLC; free ^64Cu(OAc)2 and ^64Cu-DOTHA2-PSMA were used as standards. The radio-TLCs were eluted with 0.1 M sodium citrate buffer at pH 5.5 using an Instant Imager system (BioScan, DC, U.S.A.) for radiodetection. The precipitated proteins were again subjected to 10% TFA, vortexed for 2–3 min, and then centrifuged for 10 min at 7000 rpm. The separation and analysis for the supernatant and the proteins were performed in the same manner.
# The protein binding ability was evaluated by incubating ^64Cu-DOTHA2-PSMA (100 MBq) in phosphate buffer (250 μL, pH 7) at 37 °C and fresh mouse serum (250 μL) and for 1 h, 4 h, and 24 h. Plasma proteins were precipitated by the addition of ethanol (1:1, v/v) to the plasma samples, followed by centrifugation at 7000 rpm for 5 min at room temperature and separation of the supernatant. This process was repeated three times with the same volume of ethanol, and the supernatants were pooled. The radioactivity content of the supernatant and the precipitated protein were measured in a dose calibrator to obtain the protein binding percentage.
# [5] = Balb/c mice biodistribution; format: in vivo; settings: 2 h p.i.
# Description: ^64Cu-DOTHA2-PSMA biodistribution was assessed in balb/c mice (n = 30) by harvesting blood and organs at 1 h, 2 h, 4 h, 24 h, and 48 h p.i. to measure tissue radioactivity and weight. Results were reported as the %IA/g of tissue and compared with the radiotracer used for clinical imaging in our facility, ^68Ga-PSMA-617.
# Balb/c mice (n = 30) were injected with a bolus of ^64Cu-DOTHA2-PSMA by the tail vein (in 0.3 mL of saline: 3 MBq for 1 h, 2 h, and 4 h p.i., 7.5 MBq for 24 h p.i. and 21 MBq for 48 h p.i.). Injected activity had to be increased for later time points to ensure reliable detection and reliability in organs with a low uptake, e.g., the brain. At all timepoints, blood was collected using a heparin-coated syringe by femoral vein puncture and mice were then euthanized and dissected. Harvested tissues were rinsed, blotted dry, and then weighted and counted in gamma counter. The results are reported as the %IA per gram of tissue. The biodistribution results were compared with the ^68Ga-PSMA-617 results obtained by our team at 1 h and 2 h p.i.
# LNCaP cells = assay: Cellular efflux assay; format: cell-based, human; settings: 1h incubation
# Description: Here, 12-well polylysine-coated Cellbind plates were seeded with 150 × 10^3 LNCaP cells with 1.75 mL of cell media. At 70–100% confluence (3 days of growth), the cell medium was changed and 37 kBq of ^64Cu-DOTHA2-PSMA in 1 mL of cell medium was added to each well of group 1 and 160 kBq to each of group 2.
# For efflux assays, after adding ^64Cu-DOTHA2-PSMA, cells were incubated for 60 min for the time points 15 min to 4 h (group 1) and incubated for 4 h for the time points 4 h to 48 h (group 2). After incubation, the medium was removed, cells were washed with 1 mL of cold PBS, 1 mL of cell media was added and, similarly to uptake and internalization, cells were again incubated in nonradioactive media for 0, 15, 30, 45, 60 min, 2 h, 4 h (group 1) and 4 h, 8 h, 24 h, 32 h or 48 h (group 2) (3 wells per time point). After respective incubation times per well, the medium was removed, and cells were washed with 1 mL of cold PBS, then removed from the well with 1 mL of trypsin to measure the residual radioactivity by gamma counter. The results of residual activity were expressed as percentage of the 1 h (Group 1) or 4 h (Group 2) uptake activity (0 min of efflux time-point) as a function of time for 10^6 cells.
# All the assays were performed at least 3 times, each with different ^64Cu-DOTHA2-PSMA production and cell passage. Cells were counted in 3 wells for each protocol (uptake, internalization, and efflux) on day 1 and day 3 of each experiment and an average for cells numbers at day 2.
# T1 sequence (Q04609 whole entry): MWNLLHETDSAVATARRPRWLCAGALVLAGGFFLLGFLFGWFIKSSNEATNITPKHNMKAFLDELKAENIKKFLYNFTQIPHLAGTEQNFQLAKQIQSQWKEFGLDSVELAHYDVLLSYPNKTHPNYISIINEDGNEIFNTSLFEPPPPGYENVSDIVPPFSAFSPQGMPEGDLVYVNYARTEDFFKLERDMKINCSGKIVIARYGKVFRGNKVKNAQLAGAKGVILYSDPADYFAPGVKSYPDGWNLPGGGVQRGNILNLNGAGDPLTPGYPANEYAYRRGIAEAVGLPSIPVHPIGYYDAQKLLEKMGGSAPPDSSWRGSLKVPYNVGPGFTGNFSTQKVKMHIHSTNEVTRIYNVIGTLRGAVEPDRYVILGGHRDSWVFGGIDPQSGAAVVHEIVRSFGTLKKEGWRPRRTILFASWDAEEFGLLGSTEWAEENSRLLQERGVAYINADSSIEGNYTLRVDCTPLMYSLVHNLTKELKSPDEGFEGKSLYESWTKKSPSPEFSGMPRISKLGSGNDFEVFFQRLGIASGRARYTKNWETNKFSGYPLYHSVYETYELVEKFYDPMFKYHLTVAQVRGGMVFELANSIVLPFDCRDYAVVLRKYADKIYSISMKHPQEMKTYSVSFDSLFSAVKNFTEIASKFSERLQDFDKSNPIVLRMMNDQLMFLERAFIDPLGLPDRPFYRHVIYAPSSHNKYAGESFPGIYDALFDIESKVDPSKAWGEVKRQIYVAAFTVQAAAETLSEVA
compound,measurement,setting,value
CN([O-])C(=O)CN1CCN(CC(=O)NCC2CCC(C(=O)NC(Cc3ccc4ccccc4c3)C(=O)NCCCCC(NC(=O)NC(CCC(=O)O)C(=O)O)C(=O)O)CC2)CCN(CC(=O)N(C)[O-])CCN(CC(=O)N(C)O)CC1.[Cu+2] (centres unmarked) [^natCu-DOTHA2-PSMA],IC50,"[1]; in competition with 64Cu-DOTHA2-PSMA, 1 h, reaction medium with 20 g/L BSA, read-out: IC50 on LNCaP",11.3 ± 14.3 nM
same,IC50,"[1]; with 10% BSA in RPMI, read-out: IC50",21.4 nM
same,IC50,"[1]; with RPMI only, read-out: IC50",9.08 nM
O=C([O-])CN1CCN(CC(=O)[O-])CCN(CC(=O)NCC2CCC(C(=O)NC(Cc3ccc4ccccc4c3)C(=O)NCCCCC(NC(=O)NC(CCC(=O)O)C(=O)O)C(=O)O)CC2)CCN(CC(=O)O)CC1.[64Cu+2] (centres unmarked) [^64Cu-PSMA-617],signal corresponding to the intact product in blood,[2]; 2 h p.i.,20%
same,signal corresponding to the intact product in liver,[2]; 2 h p.i.,28%
same,signal corresponding to the intact product in urine,[2]; 2 h p.i.,5.2%
same,signal corresponding to the intact product in serum,[2]; after 5 min,71%
same,log D,[3],−1.93 ± 0.13
O=C(O)CC[C@H](NC(=O)N[C@@H](CCCCNC(=O)[C@H](Cc1ccc2ccccc2c1)NC(=O)[C@H]1CC[C@H](CNC(=O)CN2CCN(CC(=O)O)CCN(CC(=O)O)CCN(CC(=O)O)CC2)CC1)C(=O)O)C(=O)O [PSMA-617],Ki,PSMA,2.34 ± 2.94 nM
CC(=O)[O-].CC(=O)[O-].[64Cu+2] [^64Cu(OAc)2],proportion of the signal bound to plasma proteins,[4],greater than 90%
"O=C(O)CCC(NC(=O)NC(CCCCNC(=O)C(Cc1ccc2ccccc2c1)NC(=O)C1CCC(CNC(=O)CN2CCN(CC(=O)O)CCN(CC(=O)O)CCN(CC(=O)O)CC2)CC1)C(=O)O)C(=O)O.[68Ga] (centres unmarked) [^68Ga-PSMA-617, reference compound]",log D,[3],−1.98
same,liver uptake,[5],0.67 ± 0.16 % IA/g
same,Retained activity normalized to time 0,LNCaP cells; efflux time 0.25 h,101.57%
same,Retained activity normalized to time 0,LNCaP cells; efflux time 0.50 h,106.07%
same,Retained activity normalized to time 0,LNCaP cells; efflux time 0.75 h,97.22%
same,Retained activity normalized to time 0,LNCaP cells; efflux time 1 h,84.75%
same,Retained activity normalized to time 0,LNCaP cells; efflux time 2 h,81.62%

# Source: paper PMC9412875, “^64Cu-DOTHA2-PSMA, a Novel PSMA PET Radiotracer for Prostate Cancer with a Long Imaging Time Window” (Pharmaceuticals, 2022)
